Data taken from patent US20120039850A1, “HCV Combination Therapies Comprising Pegylated Interferon, Ribavirin and Telaprevir” (Janssen Pharmaceutica NV, priority 2009, published 2012).
Like-named read-outs stand apart in the source and are kept apart here.

Columns and labels:
replicon = test: Predicted human liver exposure relative to replicon assay IC50/IC90; details: dose range studied
[1] = in vivo
[2] = tested on: VX-950-resistant variants of HCV; test: IC50 shift of VX-950-resistant variants
HCV genotype 1 = test: Phase 1b trial (Study VX04-950-101); details: subjects infected with HCV genotype 1
genotype 1 HCV = test: PROVE 1 Phase 2b clinical trial: viral response (HCV RNA, Roche COBAS TaqMan assay); assay type: in vivo, human
From the text: Twenty percent of those treated with telaprevir were either Hispanic (10%) or African American (10%). In the control arm, 8% of patients were Hispanic and 12% were African American. […] On average, patients were 49 years old (21-63 years range) with a mean weight of 82.1 kg (46-136 kg range).
The Roche COBAS TaqMan® assay was used to measure HCV RNA (LOD 10 IU/mL). For viral kinetic modeling, values reported as <10 IU/mL were replaced with 5 IU/mL.
Severity of fibrosis was defined by histologic assessment from each center's local pathologist.
The Roche COBAS TaqMan® assay was used to measure HCV RNA (limit of detection 10 IU/mL). For viral kinetic modeling, values reported as <10 IU/mL were replaced with 5 IU/mL.

[3] = design: species or system human; details: in vivo

CCC[C@H](NC(=O)[C@@H]1[C@H]2CCC[C@H]2CN1C(=O)[C@@H](NC(=O)[C@@H](NC(=O)c1cnccn1)C1CCCCC1)C(C)(C)C)C(=O)C(=O)NC1CC1 [VX-950]
predicted average liver concentration, fold of the replicon assay IC90 (replicon): up to 57 fold
oral bioavailability [1]: orally bioavailable
fold increase in IC50 [2]: 7-20 fold
antiviral activity (HCV genotype 1): substantial antiviral activity
% with SVR (genotype 1 HCV): 62%
% with SVR (genotype 1 HCV; AA (African American)): 44%
% with SVR (genotype 1 HCV; L (Latino)): 65%
pharmacokinetics among the different racial/ethnic groups [3]: No differences
